Assays:
Format in all cases: functional, organism-based
Oryctolagus cuniculus [1] = assay: Plasma HDL cholesterol level was analyzed after administration of 0.1%, wt/wt diet in high cholesterol-fed rabbits after 8 weeks
Oryctolagus cuniculus [2] = assay: Plasma HDL cholesterol level was analyzed after administration of 0.1%, wt/wt diet in high cholesterol-fed rabbits at 0 weeks
Oryctolagus cuniculus [3] = assay: Plasma triglyceride level was analyzed after administration of 0.1%, wt/wt diet in high cholesterol-fed rabbits after 0 weeks
Oryctolagus cuniculus [4] = assay: Plasma triglyceride level was analyzed after administration of 0.1%, wt/wt diet in high cholesterol-fed rabbits after 8 weeks
Oryctolagus cuniculus [5] = assay: Total plasma cholesterol was analyzed after administration of 0.1%, wt/wt diet in high cholesterol-fed rabbits after 8 weeks
Oryctolagus cuniculus [6] = assay: Total plasma cholesterol was analyzed after administration of 0.1%, wt/wt diet in high cholesterol-fed rabbits at 0 weeks

`CCCCCCCCCCCCCCCCC(=O)Oc1cc(O)c2c(c1)OC(c1ccc(O)cc1)CC2=O` (configuration not stated) was tested, and the Plasma lipid level (Oryctolagus cuniculus [1]) was 93 mg/dL, the Plasma lipid level (Oryctolagus cuniculus [2]) was 34 mg/dL and the Plasma lipid level (Oryctolagus cuniculus [3]) was 50 mg/dL. It also gave a Plasma lipid level (Oryctolagus cuniculus [4]) of 85 mg/dL, a Plasma lipid level (Oryctolagus cuniculus [5]) of 1060 mg/dL and a Plasma lipid level (Oryctolagus cuniculus [6]) of 53 mg/dL.

In the case of `CCCCCCCC/C=C/CCCCCCCC(=O)Oc1cc(O)c2c(c1)OC(c1ccc(O)cc1)CC2=O` (configuration not stated), the Plasma lipid level (Oryctolagus cuniculus [1]) is reported as 78 mg/dL, the Plasma lipid level (Oryctolagus cuniculus [2]) is reported as 31 mg/dL and the Plasma lipid level (Oryctolagus cuniculus [3]) is reported as 51 mg/dL. For the same molecule, the Plasma lipid level (Oryctolagus cuniculus [4]) was 105 mg/dL, the Plasma lipid level (Oryctolagus cuniculus [5]) was 1040 mg/dL and the Plasma lipid level (Oryctolagus cuniculus [6]) was 51 mg/dL.

Source: ChEMBL document CHEMBL1136343, “Naringenin derivatives as anti-atherogenic agents” (Bioorg Med Chem Lett, 2003)
